# Measurements: PMC10781750, “Structural basis of antiphage immunity generated by a prokaryotic Argonaute-associated SPARSA system” (Nature Communications, 2024)
# Assays:
# [1] = target: T1, SPARSA (GsSir2/pAgo heterodimer) (Geobacter sulfurreducens, UniProt Q74DF6); test: NADase assay, residual NAD+ by NAD/NADH quantitation kit (absorbance […] nm); type: biochemical; conditions: 1 uM SPARSA, 10 uM NAD+, 2 uM gRNA and tDNA (required for activity), 10 mM HEPES pH 7.5, 125 mM KCl, 37 C
# T1 construct: gene GSU1360; full-length GsSir2 and pAgo coexpressed in E. coli BL21(DE3); 6xHis-SPARSA (also His-SUMO version, SUMO cut by TEV); 1:1 heterodimer; with Short prokaryotic Argonaute (Piwi domain-containing protein)
# T1 sequence (Q74DF6 1-587): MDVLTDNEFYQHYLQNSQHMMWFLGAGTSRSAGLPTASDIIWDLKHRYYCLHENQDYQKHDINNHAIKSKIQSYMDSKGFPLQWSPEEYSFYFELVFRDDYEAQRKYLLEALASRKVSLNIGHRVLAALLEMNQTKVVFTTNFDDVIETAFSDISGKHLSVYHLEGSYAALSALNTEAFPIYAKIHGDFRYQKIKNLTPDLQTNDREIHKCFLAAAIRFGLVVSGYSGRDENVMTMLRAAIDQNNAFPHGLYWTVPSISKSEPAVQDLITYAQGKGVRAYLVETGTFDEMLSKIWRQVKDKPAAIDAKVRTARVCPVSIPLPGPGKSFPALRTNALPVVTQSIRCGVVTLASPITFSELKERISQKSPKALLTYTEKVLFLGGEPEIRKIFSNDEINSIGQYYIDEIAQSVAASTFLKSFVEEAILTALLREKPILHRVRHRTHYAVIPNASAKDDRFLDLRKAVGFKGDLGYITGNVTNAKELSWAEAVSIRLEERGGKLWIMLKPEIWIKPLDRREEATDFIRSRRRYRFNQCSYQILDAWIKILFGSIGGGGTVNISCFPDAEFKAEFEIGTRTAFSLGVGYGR
# T1 sequence (Q74DF5 1-473 partner): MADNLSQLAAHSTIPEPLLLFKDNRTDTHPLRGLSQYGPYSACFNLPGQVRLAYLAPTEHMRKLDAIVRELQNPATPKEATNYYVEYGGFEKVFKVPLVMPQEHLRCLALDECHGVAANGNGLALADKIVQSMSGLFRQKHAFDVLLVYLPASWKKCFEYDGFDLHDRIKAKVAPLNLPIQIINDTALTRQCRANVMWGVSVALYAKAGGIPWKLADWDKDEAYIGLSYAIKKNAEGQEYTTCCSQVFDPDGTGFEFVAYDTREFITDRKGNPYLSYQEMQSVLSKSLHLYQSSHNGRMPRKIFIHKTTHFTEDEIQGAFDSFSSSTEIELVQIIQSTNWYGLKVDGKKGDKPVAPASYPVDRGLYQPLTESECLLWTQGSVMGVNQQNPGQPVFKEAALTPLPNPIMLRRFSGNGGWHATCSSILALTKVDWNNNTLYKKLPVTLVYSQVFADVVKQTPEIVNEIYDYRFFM
# [2] = target: T1, SPARSA (GsSir2/pAgo heterodimer); test: cryo-EM structures ([…] A without, […] A with gRNA/tDNA); type: binding; conditions: endogenous NAD+ copurified; bound in Sir2 domain cleft between Rossmann fold and small domain, near N142 and H186; seen without and with gRNA/tDNA
smiles,measurement,setting,value
NC(=O)c1ccc[n+]([C@@H]2O[C@H](COP(=O)([O-])OP(=O)(O)OC[C@H]3O[C@@H](n4cnc5c(N)ncnc54)[C@H](O)[C@@H]3O)[C@@H](O)[C@H]2O)c1 [NAD^+],"NADase assay, residual NAD+ by NAD/NADH quantitation kit (absorbance 450 nm)",[1],nearly no NAD^+ remained in the wild-type SPARSA
same,"cryo-EM structures (3.6 A without, 3.1 A with gRNA/tDNA)",[2],a density within the crevice near the catalytic residues N142 and H186 was observed
